Laboratory results taken from patent publication US20100174007A1, “Haloneopentyl Bis(ALKYL) Phosphate Ester, Flame Retardant Composition Containing Same and Polyurethane Foam Prepared Therewith” (priority 2007, published 2010).

Tests used:
[1] = system: Salmonella typhimurium TA1535; test: Ames test, strain TA1535; type: cell-based; details: with and without metabolic activation; base-pair substitution strain; note: key: +: Plus sign indicates observed mutagenic effects; −: minus sign indicates non-mutagenic property
Method: (§1) In each Ames test, a single chemical substance was evaluated in the four standard Salmonella typhimurium tester strains, TA1535, TA1537, TA98, and TA100. Strains TA1535 and TA100 identify mutagens that act via base-pair substitution whereas TA1537 and TA98 identify mutagens capable of causing frameshifts in the DNA. The bacterial strain E. coli WP2uvrA was also included as another sensitive tester strain. Each test was conducted with and without metabolic activation.

[2] = system: Salmonella typhimurium TA1537; test: Ames test, strain TA1537; type: cell-based; details: with and without metabolic activation; frameshift strain; note: key: +: Plus sign indicates observed mutagenic effects; −: minus sign indicates non-mutagenic property
Method: as §1

[3] = system: Salmonella typhimurium TA98; test: Ames test, strain TA98; type: cell-based; details: with and without metabolic activation; frameshift strain; note: key: +: Plus sign indicates observed mutagenic effects; −: minus sign indicates non-mutagenic property
Method: as §1

[4] = system: Salmonella typhimurium TA100; test: Ames test, strain TA100; type: cell-based; details: with and without metabolic activation; base-pair substitution strain; note: key: +: Plus sign indicates observed mutagenic effects; −: minus sign indicates non-mutagenic property
Method: as §1

[5] = system: E. coli WP2uvrA; type: cell-based
Method: as §1

[6] = system: rats; test: Acute oral toxicity, limit dose; type: in vivo
Method: No rats died after the administration of an oral limit dose of 5000 mg/kg of products from Example 1(B). Clinical signs were minimal and all rats fully recovered by day 3. The acute oral LD50 was greater than 5000 mg/kg.

Compound	Ames test result TA1535 [1]	Ames test result TA1537 [2]	Ames test result TA98 [3]	Ames test result TA100 [4]	Ames test result WP2uvrA [5]	acute oral LD50 ([6]; oral)	mortality after oral limit dose ([6]; oral limit dose of 5000 mg/kg)	clinical signs after oral limit dose ([6]; oral limit dose of 5000 mg/kg, all rats fully recovered by day 3)
O=P(OCC(CBr)(CBr)CBr)(OC(CCl)CCl)OC(CCl)CCl [Phosphoric acid, 3-bromo-2,2-bis(bromomethyl)propyl bis[2-chloro-1-(chloromethyl)ethyl]ester]	−	−	−	+	−			
tribromoneopentyl bis(isobutyl)phosphate [Products of 1(B)]	−	−	−	−	−	greater than 5000 mg/kg	No rats died	minimal
CC(C)(C)c1ccccc1OP(=O)(OC(CCl)CCl)OC(CCl)CCl [O-tert-Butylphenyl bis(1,3-dichloro-2-propyl)phosphate]	+	−	−	+	−			
